Data on 7 molecules can be found in patent US11766414B2, “Compositions, delivery systems, and methods useful in tumor therapy” (Indi Molecular, Inc., priority 2020, dated 2023).

One may read the pEC50 as the negative decadic logarithm of the EC50, by convention in mol/L.

The nature of one data set: in vivo. Particulars: female, NSG, mouse, iv, total radioactivity. The procedure: (§1) Water and food were provided ad libitum. […] Tumor growth was monitored by caliper measurements.
CT scans were acquired for anatomical reference. Imaging was performed on a GENISYS^8 microPET/CT small animal scanner.
NSG mice were engrafted with OVCAR3 cells subcutaneously. […] Absorption of the radiotracer by highly perfused organs including the lungs indicate systemic circulation of the compound. Compound clearance is driven at the very early timepoints by a combination of hepatic and renal excretion. Over time, clearance is exclusively renal with retention of the compound in the tumor, and kidney.

Data set [1] has as its system OVCAR3 FOLR1+ cells (PC-3 FOLR1− cells as negative line). The data set can be described thus: Flow cytometry binding to FOLR1 (+) and FOLR1 (−) cell lines. Format: cell-based, human. The conditions noted are these: for binding selectivity for FOLR1 (+) cells over FOLR1 (−) cells: OVCAR3 vs PC-3, flow cytometry. The procedure: Both the kyeet (SEQ ID NO:9) and hshta (SEQ ID NO:6)-derived biligands were tested by flow cytometry for binding to FOLR1 (+) and FOLR1 (−) cell lines (FIGS. 6 and 7). The human ovarian adenocarcinoma-derived cell line OVCAR3 has robust FOLR1 expression and was selected as the FOLR1 (+) cell line. The human prostate adenocarcinoma-derived cell line PC-3 was selected as a FOLR1 (−) cell line.

For data set [2], the target named is T1, FOLR1 (Homo sapiens, UniProt P15328). Description: ELISA assay of FOLR1 binding. Particulars: for pEC50: read-out: EC50 (ELISA, FOLR1). An excerpt: FIG. 5 is a diagram of ELISA assay of FOLR1 binding of heterobiligands.
T1 sequence (P15328 25-234): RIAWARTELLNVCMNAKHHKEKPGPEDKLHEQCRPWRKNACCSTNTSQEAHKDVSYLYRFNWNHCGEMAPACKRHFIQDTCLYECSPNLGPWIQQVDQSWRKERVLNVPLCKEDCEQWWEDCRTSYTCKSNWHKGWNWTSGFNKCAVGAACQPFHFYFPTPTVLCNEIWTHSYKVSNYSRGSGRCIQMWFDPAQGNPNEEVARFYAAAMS
Data set [3] concerns OVCAR3 xenograft. Description: 177Lu FOLR1 radioligand therapy of OVCAR3 xenografts. The class given is in vivo, mouse. The procedure: as §1
OVCAR3 tumor bearing mice were used to study FOLR1-directed radioligand therapy (RLT) for treatment of ovarian cancer. Animals were administered a single dose of heterobiligand (vehicle control) or 111, 37, 18.5, 9.25, or 3.7 MBq [^177Lu]DOTA-labeled heterobiligand. Mice received the dose intravenously (i.v.) via the tail vein. To monitor the effect of the RLT, tumor size measurements were taken twice weekly and body weights were measured.
Single dose treatments at 18.5 MBq/nmol specific activity. OVCAR3 mouse model was used. 10^7 cell tumors were implanted in the mice one month before administration of ^177Lu-#6305. Five mice each were administered Cold #6305, 9.25 MBq Lu177-#6305, and 14.8 MBq Lu177-#6305, and two mice were administered 29.6 MBq Lu177-#6305. Tumor growth and body weight were then monitored.
Female NSG mice were implanted subcutaneously with OVCAR3 cells. Once tumors reached volumes of 200 mm^3, the animals were treated with 177-Lu 7327. Three treatment arms of 9.25 MBq, 14.8 MBq, and 29.6 MBq were studied.

Data set [4] concerns the target T1, FOLR1. Description: Folic acid competition ELISA. The class given is binding. The procedure: A competition experiment was conducted to further understand the binding kinetics of the lead heterobiligand (folate-hshta (SEQ ID NO:6) Nterm heterobiligand).
Background: ELISA stands for enzyme-linked immunosorbent assay.

Data set [5] can be described thus: Maximum tolerated dose (MTD) tolerability study.
Experimental: In order to establish a maximum tolerated dose (MTD), a tolerability study was undertaken testing increasing amounts of the 177-Lu heterobiligand 7327 (folate-hshta-Gly-Phe-Lys(DOTA)). Animals were monitored for signs of toxicity and weighed twice weekly. […] The second and third doses were administered 21 days following the previous dose.
Efforts were undertaken to evaluate 177-Lu 6305 (folate-hshta-Lys(MPBA)-Gly-Phe-Lys(DOTA)), a compound with a brush border cleavable linker in addition to an albumin binder. […] Two separate MTD experiments were undertaken. […] A second experiment interrogated lower doses.
In order to establish a MTD, dose range finding studies were undertaken testing increasing amounts of Indi ^177Lu-7327 in healthy, non-tumor bearing female NSG mice using IV administration (FIGS. 34 and 35). Mouse body weight and behavior were monitored. […] The second and third doses were administered 21 days following the previous dose.
Data set [6] concerns OVCAR3 xenograft. Description: 177Lu FOLR1 radioligand therapy of OVCAR3 xenografts. The class given is in vivo, mouse. This is another data set of the same source.

pEC50: −log10 of the molar value. Positions of bridges follow the written chain, without caps; N, C: chain ends. Non-standard residues stand in square brackets, D forms with d. Residues, ends and D or L forms follow the SMILES beside them. Triazole bridges read from a SMILES are 1,4-linked. *: point of attachment. Biotin = O=C1N[C@H]2[C@H](CS[C@H]2CCCCC(=O)*)N1; Lys(N3) = [N-]=[N+]=NCCCC[C@H](N)C(=O)O; AEEEA = NCCOCCOCCOCC(=O)O; Pra = C#CC[C@H](N)C(=O)O

For the molecule `C[C@H](O)[C@H]1NC(=O)[C@@H](Cc2cnc[nH]2)NC(=O)[C@@H](CO)NC(=O)[C@@H](Cc2cnc[nH]2)NC(=O)[C@@H](NC(=O)CC[C@H](NC(=O)c2ccc(NCc3cnc4nc(N)[nH]c(=O)c4n3)cc2)C(=O)O)Cc2cn(nn2)CCCC[C@@H](C(=O)NCCOCCOCCOCC(=O)N[C@@H](CCCCNC(=O)CO/N=C/c2ccc([18F])cc2)C(N)=O)NC(=O)[C@@H](C)NC1=O`, the tissue uptake per volume at 4 h is about 4 %ID/mL in the data set “in vivo” (accumulation in the tumor) and 3.5 to 5.5 %ID/mL in the data set “in vivo” (radiotracer accumulation in the tumor).

`C[C@H](O)[C@H]1NC(=O)[C@@H](Cc2ccc(O)cc2)NC(=O)[C@@H](CCCNC(=N)N)NC(=O)[C@@H](CCC(=O)O)NC(=O)[C@@H](CC(=O)O)NC(=O)[C@@H](NC(=O)[C@H](Cc2cn(CCOCCOCCOCCNC(=O)CC[C@H](NC(=O)c3ccc(NCc4cnc5nc(N)[nH]c(=O)c5n4)cc3)C(=O)O)nn2)NC(=O)CCOCCOCCOCCOCCOCCOCCOCCOCCOCCOCCNC(=O)CCOCCOCCOCCOCCOCCOCCOCCOCCOCCOCCNC(=O)CCCC[C@@H]2SC[C@@H]3NC(=O)N[C@@H]32)Cc2cn(nn2)CCCC[C@@H](C(N)=O)NC1=O` [Folate-deryt]: the “binding selectivity for FOLR1 (+) cells over FOLR1 (−) cells” value (“binding selectivity for FOLR1 … (−) cells” below) in data set [1] is “excellent selectivity”. Moreover, the pEC50 on FOLR1 [2] is 9.55.

For the molecule `C[C@H](O)[C@H]1NC(=O)[C@@H](Cc2c[nH]cn2)NC(=O)[C@@H](CO)NC(=O)[C@@H](Cc2c[nH]cn2)NC(=O)[C@@H](NC(=O)[C@H](Cc2cn(CCOCCOCCOCCNC(=O)CC[C@H](NC(=O)c3ccc(NCc4cnc5nc(N)[nH]c(=O)c5n4)cc3)C(=O)O)nn2)NC(=O)CCOCCOCCOCCOCCOCCOCCOCCOCCOCCOCCNC(=O)CCOCCOCCOCCOCCOCCOCCOCCOCCOCCOCCNC(=O)CCCC[C@@H]2SC[C@@H]3NC(=O)N[C@@H]32)Cc2cn(nn2)CCCC[C@@H](C(N)=O)NC(=O)[C@@H](C)NC1=O` [Tz heterobiligand], the “binding selectivity for FOLR1 … (−) cells” value in data set [1] was “high selectivity”. For the same molecule, the negative-log EC50 (pEC50) at FOLR1 [2] is 9.97.

As for `C[C@H](O)[C@H]1NC(=O)[C@@H](CCC(=O)O)NC(=O)[C@@H](CCC(=O)O)NC(=O)[C@@H](Cc2ccc(O)cc2)NC(=O)[C@@H](CCCCN)NC(=O)[C@@H](NC(=O)[C@H](Cc2cn(CCOCCOCCOCCNC(=O)CC[C@H](NC(=O)c3ccc(NCc4cnc5nc(N)[nH]c(=O)c5n4)cc3)C(=O)O)nn2)NC(=O)CCOCCOCCOCCOCCOCCOCCOCCOCCOCCOCCNC(=O)CCOCCOCCOCCOCCOCCOCCOCCOCCOCCOCCNC(=O)CCCC[C@@H]2SC[C@@H]3NC(=O)N[C@@H]32)Cc2cn(nn2)CCCC[C@@H](C(N)=O)NC1=O` [folate-kyeet heterobiligand], in data set [1] (40 nM of the test article), the “binding selectivity for FOLR1 (+) cells” value is “Virtually complete selectivity”. For the same molecule, in data set [1], the “binding selectivity for FOLR1 … (−) cells” value is given as “high selectivity”. The negative logarithm of the EC50 (pEC50) on FOLR1 [2] was 9.83.

`C[C@H](O)[C@H]1NC(=O)[C@@H](Cc2c[nH]cn2)NC(=O)[C@@H](CO)NC(=O)[C@@H](Cc2c[nH]cn2)NC(=O)[C@@H](NC(=O)COCCOCCOCCNC(=O)CCCC[C@@H]2SC[C@@H]3NC(=O)N[C@@H]32)Cc2cn(nn2)CCCC[C@@H](C(N)=O)NC(=O)[C@@H](C)NC1=O` [hshta] ({Biotin-AEEEA}-[Pra][dH][dS][dH][dT][dA][Lys(N3)]-NH2; triazole 1-7): in data set [1], the “binding selectivity for FOLR1 … (−) cells” value is reported as “higher selectivity for FOLR1 than kyeet”. In addition, the “affinity for recombinant human FOLR protein in ELISA” value at FOLR1 [2] (tested alone) was “low micromolar affinity”.

Regarding `C[C@H](O)[C@H]1NC(=O)[C@@H](CCC(=O)O)NC(=O)[C@@H](CCC(=O)O)NC(=O)[C@@H](Cc2ccc(O)cc2)NC(=O)[C@@H](CCCCN)NC(=O)[C@@H](NC(=O)COCCOCCOCCNC(=O)CCCC[C@@H]2SC[C@@H]3NC(=O)N[C@@H]32)Cc2cn(nn2)CCCC[C@@H](C(N)=O)NC1=O` [kyeet] ({Biotin-AEEEA}-[Pra][dK][dY][dE][dE][dT][Lys(N3)]-NH2; triazole 1-7), the “binding selectivity for FOLR1 … (−) cells” value in data set [1] is “slight binding selectivity”.

On to “Folate-hshta-G-F-K(^177Lu-DOTA)-OH [^177Lu-#7327]”, for which the caliper-measured tumor volume entry in the data set with OVCAR3 xenograft [3] (29.6 MBq arm, following the second dose) is “stabilized and then fell”. The “time to statistically significant differential between treated and untreated” value with OVCAR3 xenograft [3] (29.6 MBq arm, p≤0.05) is listed as 12 days post injection. The “loss of body weight” value with OVCAR3 xenograft [3] (29.6 MBq dose, two doses) is on record as 5-10%. The “body weights of treated mice” value in the data set on OVCAR3 xenograft [3] ((+/−10%)) is “normal body weights”. For the same molecule, the values for the tumor response entry in the data set on OVCAR3 xenograft [3] (two treatments at 29.6 MBq followed by a third treatment at 74 MBq), in the data set with OVCAR3 xenograft [6] (two treatments at 29.6 MBq) and in the data set on OVCAR3 xenograft [6] (two treatments at 74 MBq) were “Tumor regression”, “tumor stasis” and “Tumor stasis”, respectively. For the same molecule, the “outcompeting native folate for receptor binding” value on FOLR1 [4] is “approximately 500 fold”. Also, the tolerability entry is recorded as “not tolerated” in data set [5] (doses of 111 MBq and 185 MBq); “lost substantial body weight” in data set [5] (doses of 111 MBq and 185 MBq, listed as Indi ^177Lu-7327); “well tolerated” in data set [5] (repeated doses of 14.8, 22.2, 29.6, and 37 MBq, 21 days apart). For the same molecule, the tolerated radioactive doses result in data set [5] (three treatments, healthy non-tumor bearing female NSG mice) is given as “up to 111 MBq”. The “body weight loss after second dose” value in the data set with OVCAR3 xenograft [6] (9.25 MBq and 14.8 MBq arms, second dose 21 days after first) is reported as “minimal”. Besides, the “tolerability of first dose” value in the data set on OVCAR3 xenograft [6] (9.25 MBq, 14.8 MBq, and 29.6 MBq arms) was “well tolerated”. In addition, the “tumor sizes after additional treatment on day 24” value with OVCAR3 xenograft [6] (46.3, 74 and 148 MBq groups) is “shrinking tumor sizes”. In addition, the tumor volumes result with OVCAR3 xenograft [6] (46.3 MBq group, elevated dose) is listed as “stable tumor volumes”. In the data set with OVCAR3 xenograft [6] (74 MBq and 148 MBq arms, single elevated dose at 45 days post injection), the “decrease of tumor volumes, on average” value is 50%. Also, the body weight result in the data set on OVCAR3 xenograft [6] (74 MBq and 148 MBq, elevated dose) is given as “modest body weight loss”. The “time to statistically significant differential between treated and control” value with OVCAR3 xenograft [6] (74 MBq arm) turned out to be 24 days post-injection. Also, the “body weight after second dose” value in the data set with OVCAR3 xenograft [6] (highest dose (29.6 MBq)) was “modest loss of body weight that stabilized and then rebounded”. Further, the tumor volume result in the data set with OVCAR3 xenograft [6] (two doses at 74 MBq, 21 days apart, vs 0 MBq control) is recorded as “decrease in tumor volume”; with OVCAR3 xenograft [6] (two doses, arms of 9.25, 14.8, and 29.6 MBq) it was “dose dependent decrease in tumor volume”.
